Source: patent US20250170141A1, “MRGPRX2 MODULATORS AND RELATED METHODS OF TREATMENT” (Escient Pharmaceuticals, Inc., priority 2023, published 2025)

Target: T1, human MRGPRX2 (Homo sapiens, UniProt Q96LB1)
T1 construct: expressed in transfected cells; host or cells: CHO cells, stably transfected (G418 and Hygromycin B selection)
T1 sequence (Q96LB1 1-330): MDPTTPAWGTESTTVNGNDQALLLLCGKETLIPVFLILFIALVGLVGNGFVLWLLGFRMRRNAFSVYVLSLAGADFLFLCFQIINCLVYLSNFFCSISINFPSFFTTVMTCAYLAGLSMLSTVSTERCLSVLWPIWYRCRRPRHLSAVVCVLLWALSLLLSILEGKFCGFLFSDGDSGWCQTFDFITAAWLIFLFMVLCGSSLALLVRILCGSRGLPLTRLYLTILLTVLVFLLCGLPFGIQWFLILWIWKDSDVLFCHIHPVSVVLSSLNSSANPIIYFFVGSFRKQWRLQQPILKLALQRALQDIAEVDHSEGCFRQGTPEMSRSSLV
Experiment: MRGPRX2 activity: IP-One Gq HTRF assay in CHO cells, antagonism versus 0.3 uM Cortistatin-14
Format: cell-based
Conditions: versus 0.3 uM Cortistatin-14 agonist, CHO cells expressing human MRGPRX2, read-out: MRGPRX2 Antagonist Activity
Method: CHO cells stably transfected to express human MRGPRX2 were maintained in an incubator at 37° C. with 5% CO2 and grown in F12 (HAM) media with 10% fetal bovine serum (FBS), 1% Glutamax, 1% penicillin/streptomycin, 800 μg/mL Geneticin (G418), and 300 μg/mL Hygromycin B.
Cells were plated in a 384-well assay plate at 20,000 cells per well in 12 μL of Opti-MEM and kept in an incubator overnight. On the day of the assay, compounds solubilized at 10 mM in DMSO were added as a 10-point curve (30 uM final top concentration with 1:3 serial dilutions) using a Tecan D300E digital dispenser. Agonists were diluted in assay buffer (final concentrations of 5.7 mM Tris-HCl, 43 mM NaCl, 50 mM LiCl, pH=8) and 2 μL of the agonist Cortistatin-14 (CPC Scientific, catalog CORT-002) are added to each well. Final concentrations of agonists were 0.3 μM Cortistatin. Final concentrations of DMSO were kept consistent across the plate. Plates were incubated in the dark for 1 h at 37° C. and then for 1 h at room temperature. IP-1 standards and HTRF detection reagents were added according to the IP-One—Gq Kit purchased from Cisbio (part number 62IPAPEJ) and incubated in the dark for 1 h at room temperature. The plate was read on a Molecular Devices SpectraMax iD5 plate reader. The HTRF ratio was calculated from the raw data and graphed using GraphPad Prism to calculate an IC50 value for each compound.
The activity ranges are denoted as follows: “+++++” denotes antagonist activity <100 nM; “++++” denotes antagonist activity between 100 and 500 nM; “+++” denotes activity between 501 and 1000 nM; “++” denotes activity between 1001 and 2500 nM; and “+” denotes activity >2500 nM.

SMILES	IC50 [nM]
CC(c1c(F)ccc2c1NC(NCc1cccc(F)c1)=NS2(=O)=O)C1CCOCC1 (centres unmarked) [Compound 22-3, 6-fluoro-3-((3-fluorobenzyl)amino)-5-(1-(tetrahydro-2H-pyran-4-yl)ethyl)-4H-benzo[e][1,2,4]thiadiazine 1,1-dioxide]	< 100
O=S1(=O)N=C(NCc2ccccc2F)Nc2c(Cc3cccc(F)c3)cccc21 [Compound 6-8, 5-(3-fluorobenzyl)-3-((2-fluorobenzyl)amino)-4H-benzo[e][1,2,4]thiadiazine 1,1-dioxide]	< 100
CC(c1cccc(F)c1Cl)c1c(F)ccc2c1NC(NCc1ncccc1F)=NS2(=O)=O (centres unmarked) [Compound 7-1, 5-(1-(2-chloro-3-fluorophenyl)ethyl)-6-fluoro-3-(((3-fluoropyridin-2-yl)methyl)amino)-4H-benzo[e][1,2,4]thiadiazine 1,1-dioxide]	< 100
Cc1cccc(C(C)c2c(F)ccc3c2NC(NCc2cccc(F)c2)=NS3(=O)=O)c1 (centres unmarked) [Compound 22-12, 6-fluoro-3-((3-fluorobenzyl)amino)-5-(1-(m-tolyl)ethyl)-4H-benzo[e][1,2,4]thiadiazine 1,1-dioxide]	< 100
O=S1(=O)N=C(NCc2ccncc2Cl)Nc2c(Cc3ccccc3Cl)cccc21 [Compound 12-17, 5-(2-chlorobenzyl)-3-(((3-chloropyridin-4-yl)methyl)amino)-4H-benzo[e][1,2,4]thiadiazine 1,1-dioxide]	< 100
O=S1(=O)N=C(NCc2cccc(F)c2)Nc2c(Cc3ccccc3Cl)cccc21 [Compound 12-22, 5-(2-chlorobenzyl)-3-((3-fluorobenzyl)amino)-4H-benzo[e][1,2,4]thiadiazine 1,1-dioxide]	< 100
O=S1(=O)N=C(NCc2ccccc2F)Nc2c(Cc3cccc(Cl)c3)cccc21 [Compound 6-11, 5-(3-chlorobenzyl)-3-((2-fluorobenzyl)amino)-4H-benzo[e][1,2,4]thiadiazine 1,1-dioxide]	< 100
O=S1(=O)N=C(NCc2cccnc2F)Nc2c(Cc3ccccc3Cl)cccc21 [Compound 12-28, 5-(2-chlorobenzyl)-3-(((2-fluoropyridin-3-yl)methyl)amino)-4H-benzo[e][1,2,4]thiadiazine 1,1-dioxide]	< 100
CC(C)(c1ccccc1F)c1cccc2c1NC(NCc1ncccc1Cl)=NS2(=O)=O [Compound 15-1, 3-(((3-chloropyridin-2-yl)methyl)amino)-5-(2-(2-fluorophenyl)propan-2-yl)-4H-benzo[e][1,2,4]thiadiazine 1,1-dioxide]	501 to 1000
O=S1(=O)N=C(NCc2ncccc2Cl)Nc2c1cc(F)c(F)c2Oc1ccccc1Cl [Compound 1-6, 5-(2-chlorophenoxy)-3-(((3-chloropyridin-2-yl)methyl)amino)-6,7-difluoro-4H-benzo[e][1,2,4]thiadiazine 1,1-dioxide]	< 100
Cc1c(F)cccc1CNC1=NS(=O)(=O)c2ccc(F)c(C(C)c3cccc(F)c3Cl)c2N1 (centres unmarked) [Compound 7-2, 5-(1-(2-chloro-3-fluorophenyl)ethyl)-6-fluoro-3-((3-fluoro-2-methylbenzyl)amino)-4H-benzo[e][1,2,4]thiadiazine 1,1-dioxide]	< 100
O=S1(=O)N=C(NCc2ncccc2F)Nc2c1cc(F)c(F)c2Oc1ccccc1Cl [Compound 1-5, 5-(2-chlorophenoxy)-6,7-difluoro-3-(((3-fluoropyridin-2-yl)methyl)amino)-4H-benzo[e][1,2,4]thiadiazine 1,1-dioxide]	< 100
CC(C)c1ccc(NC2=NS(=O)(=O)c3cc(F)c(F)c(Cc4ccccc4Cl)c3N2)cc1 [Compound 4-15, 5-(2-chlorobenzyl)-6,7-difluoro-3-((4-isopropylphenyl)amino)-4H-benzo[e][1,2,4]thiadiazine 1,1-dioxide]	> 2500
O=S1(=O)N=C(NCc2cccc(F)n2)Nc2c1cc(F)c(F)c2Cc1ccccc1Cl [Compound 4-11, 5-(2-chlorobenzyl)-6,7-difluoro-3-(((6-fluoropyridin-2-yl)methyl)amino)-4H-benzo[e][1,2,4]thiadiazine 1,1-dioxide]	100 to 500
N#Cc1ccc2c(c1Oc1ccccc1Cl)NC(NCc1ncccc1F)=NS2(=O)=O [Compound 3-2, 5-(2-chlorophenoxy)-3-(((3-fluoropyridin-2-yl)methyl)amino)-4H-benzo[e][1,2,4]thiadiazine-6-carbonitrile 1,1-dioxide]	< 100
O=S1(=O)N=C(NCc2cccnc2F)Nc2c1ccc(F)c2Oc1ccccc1Cl [Compound 2-5, 5-(2-chlorophenoxy)-6-fluoro-3-(((2-fluoropyridin-3-yl)methyl)amino)-4H-benzo[e][1,2,4]thiadiazine 1,1-dioxide]	100 to 500
O=S1(=O)N=C(NCc2cccnc2F)Nc2c1cc(F)c(F)c2Cc1ccccc1Cl [Compound 4-7, 5-(2-chlorobenzyl)-6,7-difluoro-3-(((2-fluoropyridin-3-yl)methyl)amino)-4H-benzo[e][1,2,4]thiadiazine 1,1-dioxide]	1000 to 2500
Cc1cccnc1CNC1=NS(=O)(=O)c2ccc(F)c(Oc3ccccc3Cl)c2N1 [Compound 1-32, 5-(2-chlorophenoxy)-6-fluoro-3-(((3-methylpyridin-2-yl)methyl)amino)-4H-benzo[e][1,2,4]thiadiazine 1,1-dioxide]	100 to 500
O=S1(=O)N=C(NCc2ncc(F)cc2F)Nc2c(Cc3ccccc3Cl)cccc21 [Compound 12-10, 5-(2-chlorobenzyl)-3-(((3,5-difluoropyridin-2-yl)methyl)amino)-4H-benzo[e][1,2,4]thiadiazine 1,1-dioxide]	< 100
O=S1(=O)N=C(NCc2ncccc2F)Nc2c1ccc(F)c2Oc1c(Cl)cccc1Cl [Compound 1-9, 5-(2,6-dichlorophenoxy)-6-fluoro-3-(((3-fluoropyridin-2-yl)methyl)amino)-4H-benzo[e][1,2,4]thiadiazine 1,1-dioxide]	< 100
COc1cccnc1CNC1=NS(=O)(=O)c2ccc(F)c(Oc3ccccc3Cl)c2N1 [Compound 1-30, 5-(2-chlorophenoxy)-6-fluoro-3-(((3-methoxypyridin-2-yl)methyl)amino)-4H-benzo[e][1,2,4]thiadiazine 1,1-dioxide]	100 to 500
O=C(c1ccccc1Cl)c1cccc2c1NC(NCc1ncccc1F)=NS2(=O)=O [Compound 16-5, (2-chlorophenyl)(3-(((3-fluoropyridin-2-yl)methyl)amino)-1,1-dioxido-4H-benzo[e][1,2,4]thiadiazin-5-yl)methanone]	100 to 500
COc1ccncc1CNC1=NS(=O)(=O)c2cccc(Cc3ccccc3Cl)c2N1 [Compound 12-26, 5-(2-chlorobenzyl)-3-(((4-methoxypyridin-3-yl)methyl)amino)-4H-benzo[e][1,2,4]thiadiazine 1,1-dioxide]	1000 to 2500
CC(c1ccc(N2CCOCC2)cc1)c1c(F)ccc2c1NC(NCc1cccc(F)c1)=NS2(=O)=O (centres unmarked) [Compound 22-16, 6-fluoro-3-((3-fluorobenzyl)amino)-5-(1-(4-morpholinophenyl)ethyl)-4H-benzo[e][1,2,4]thiadiazine 1,1-dioxide]	1000 to 2500
O=S1(=O)N=C(NCc2cccc(Cl)c2F)Nc2c1ccc(F)c2Cc1ccccc1Cl [Compound 4-3, 3-((3-chloro-2-fluorobenzyl)amino)-5-(2-chlorobenzyl)-6-fluoro-4H-benzo[e][1,2,4]thiadiazine 1,1-dioxide]	< 100
O=S1(=O)N=C(NCc2ncccc2F)Nc2c1ccc(F)c2Oc1ccc(F)cc1Cl [Compound 1-18, 5-(2-chloro-4-fluorophenoxy)-6-fluoro-3-(((3-fluoropyridin-2-yl)methyl)amino)-4H-benzo[e][1,2,4]thiadiazine 1,1-dioxide]	< 100
O=S1(=O)N=C(NCc2ncccc2F)Nc2c1ccc(F)c2C#Cc1ccccc1 [Compound 19-1, 6-fluoro-3-(((3-fluoropyridin-2-yl)methyl)amino)-5-(phenylethynyl)-4H-benzo[e][1,2,4]thiadiazine 1,1-dioxide]	100 to 500
Cc1ccc(Cc2cccc3c2NC(NCc2ccccc2F)=NS3(=O)=O)cc1 [Compound 6-16, 3-((2-fluorobenzyl)amino)-5-(4-methylbenzyl)-4H-benzo[e][1,2,4]thiadiazine 1,1-dioxide]	100 to 500
O=S1(=O)N=C(NCc2ncccc2C(F)(F)F)Nc2c1ccc(F)c2Oc1ccccc1Cl [Compound 1-26, 5-(2-chlorophenoxy)-6-fluoro-3-(((3-(trifluoromethyl)pyridin-2-yl)methyl)amino)-4H-benzo[e][1,2,4]thiadiazine 1,1-dioxide]	1000 to 2500
